Experimental data: ChEMBL document CHEMBL6182862, “Discovery of novel azetidine-based imidazopyridines as selective and orally bioavailable inhibitors of phosphodiesterase 10A for the treatment of pulmonary arterial hypertension” (Eur J Med Chem, 2025)

Columns and labels:
[1] = biological target: Dual specificity calcium/calmodulin-dependent 3',5'-cyclic nucleotide phosphodiesterase 1C (Homo sapiens, UniProt Q14123); experiment: Inhibition of PDE1C (147 to 531 residues) (unknown origin) using 3H-cGMP/3H-cAMP as substrate incubated for 15 mins by liquid scintillation counter analysis
Cytochrome P450 2C19 = Cytochrome P450 2C19 (Homo sapiens, UniProt P33261); experiment: Inhibition of CYP2C19 (unknown origin); format: ADME
[2] = biological target: High affinity 3',5'-cyclic-AMP phosphodiesterase 7A (Homo sapiens, UniProt Q13946); experiment: Inhibition of PDE7A1 (130 to 482 residues) (unknown origin) using 3H-cAMP as substrate incubated for 15 mins by liquid scintillation counter analysis
Sequence of High affinity 3',5'-cyclic-AMP phosphodiesterase 7A (Q13946 whole entry, the tested form may be a part): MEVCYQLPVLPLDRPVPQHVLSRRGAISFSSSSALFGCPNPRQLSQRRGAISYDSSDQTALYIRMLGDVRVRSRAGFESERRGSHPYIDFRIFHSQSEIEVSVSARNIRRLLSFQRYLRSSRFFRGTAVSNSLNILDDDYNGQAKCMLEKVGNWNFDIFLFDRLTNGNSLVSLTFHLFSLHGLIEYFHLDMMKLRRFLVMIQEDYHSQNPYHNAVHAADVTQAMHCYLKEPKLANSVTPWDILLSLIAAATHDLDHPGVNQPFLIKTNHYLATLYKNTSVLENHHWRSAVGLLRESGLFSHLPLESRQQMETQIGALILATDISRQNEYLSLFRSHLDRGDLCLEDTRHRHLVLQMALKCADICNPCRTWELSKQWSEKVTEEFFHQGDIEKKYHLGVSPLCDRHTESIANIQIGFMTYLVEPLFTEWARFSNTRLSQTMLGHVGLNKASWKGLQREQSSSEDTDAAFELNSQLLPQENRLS

[3] = biological target: Cone cGMP-specific 3',5'-cyclic phosphodiesterase subunit alpha' (Homo sapiens, UniProt P51160); experiment: Inhibition of PDE6C (1 to 858 residues) (unknown origin) using 3H-cGMP as substrate incubated for 15 mins by liquid scintillation counter analysis
Sequence of Cone cGMP-specific 3',5'-cyclic phosphodiesterase subunit alpha' (P51160 whole entry, the tested form may be a part): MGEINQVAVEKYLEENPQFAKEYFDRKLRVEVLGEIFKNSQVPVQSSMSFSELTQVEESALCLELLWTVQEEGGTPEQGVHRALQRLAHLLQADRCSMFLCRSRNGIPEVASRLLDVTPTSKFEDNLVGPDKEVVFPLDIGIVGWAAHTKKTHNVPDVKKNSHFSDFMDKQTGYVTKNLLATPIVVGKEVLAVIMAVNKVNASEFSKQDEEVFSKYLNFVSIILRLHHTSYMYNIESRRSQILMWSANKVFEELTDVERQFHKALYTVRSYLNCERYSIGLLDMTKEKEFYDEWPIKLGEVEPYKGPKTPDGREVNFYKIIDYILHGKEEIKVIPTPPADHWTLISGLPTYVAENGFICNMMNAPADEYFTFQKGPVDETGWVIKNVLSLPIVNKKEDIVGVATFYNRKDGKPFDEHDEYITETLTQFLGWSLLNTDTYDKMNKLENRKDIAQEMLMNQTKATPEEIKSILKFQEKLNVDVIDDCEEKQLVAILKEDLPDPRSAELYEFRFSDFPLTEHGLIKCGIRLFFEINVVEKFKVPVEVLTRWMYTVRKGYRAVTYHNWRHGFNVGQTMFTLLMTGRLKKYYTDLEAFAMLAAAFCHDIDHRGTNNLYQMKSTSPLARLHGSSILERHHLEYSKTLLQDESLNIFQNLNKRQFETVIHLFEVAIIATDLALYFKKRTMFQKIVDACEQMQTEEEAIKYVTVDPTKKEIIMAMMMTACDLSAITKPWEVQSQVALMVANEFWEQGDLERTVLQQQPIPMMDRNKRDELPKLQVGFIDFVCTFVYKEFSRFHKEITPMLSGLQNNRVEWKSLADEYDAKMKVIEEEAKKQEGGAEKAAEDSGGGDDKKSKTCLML

Cytochrome P450 3A4 = Cytochrome P450 3A4 (Homo sapiens, UniProt P08684); experiment: Inhibition of CYP3A4 (unknown origin); format: ADME
Sequence of Cytochrome P450 3A4 (P08684 whole entry): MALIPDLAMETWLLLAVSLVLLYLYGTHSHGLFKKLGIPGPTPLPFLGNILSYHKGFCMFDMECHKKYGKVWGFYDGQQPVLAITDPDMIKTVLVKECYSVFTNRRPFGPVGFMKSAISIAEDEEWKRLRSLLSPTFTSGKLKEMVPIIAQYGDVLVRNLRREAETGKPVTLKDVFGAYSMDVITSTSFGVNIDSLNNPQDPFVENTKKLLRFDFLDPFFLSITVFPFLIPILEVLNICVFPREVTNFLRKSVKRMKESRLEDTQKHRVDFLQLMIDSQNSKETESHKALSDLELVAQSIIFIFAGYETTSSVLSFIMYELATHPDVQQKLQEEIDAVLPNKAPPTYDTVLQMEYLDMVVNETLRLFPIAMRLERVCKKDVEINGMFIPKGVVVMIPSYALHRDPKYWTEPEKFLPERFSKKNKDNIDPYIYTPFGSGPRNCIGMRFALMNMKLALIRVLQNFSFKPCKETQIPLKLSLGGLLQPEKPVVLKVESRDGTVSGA

Cytochrome P450 2D6 = Cytochrome P450 2D6 (Homo sapiens, UniProt P10635); experiment: Inhibition of CYP2D6 (unknown origin); format: ADME
Sequence of Cytochrome P450 2D6 (P10635 whole entry): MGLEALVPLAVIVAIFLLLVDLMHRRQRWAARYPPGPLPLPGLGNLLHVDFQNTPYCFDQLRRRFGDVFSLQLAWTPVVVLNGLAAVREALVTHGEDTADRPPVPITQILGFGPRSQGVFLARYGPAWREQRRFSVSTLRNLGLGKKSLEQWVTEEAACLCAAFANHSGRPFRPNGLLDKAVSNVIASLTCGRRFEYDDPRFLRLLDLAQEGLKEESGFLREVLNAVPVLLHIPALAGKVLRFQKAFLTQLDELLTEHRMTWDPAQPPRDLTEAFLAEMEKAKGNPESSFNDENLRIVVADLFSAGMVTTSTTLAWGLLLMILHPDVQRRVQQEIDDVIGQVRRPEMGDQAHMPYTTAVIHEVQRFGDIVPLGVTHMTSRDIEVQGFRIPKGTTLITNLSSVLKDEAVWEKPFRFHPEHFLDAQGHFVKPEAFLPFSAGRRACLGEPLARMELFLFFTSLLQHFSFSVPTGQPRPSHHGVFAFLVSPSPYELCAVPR

Cytochrome P450 1A2 = biological target: T1, Cytochrome P450 1A2 (Homo sapiens, UniProt P05177); experiment: Inhibition of CYP1A2 (unknown origin); format: ADME
T1 sequence (P05177 whole entry): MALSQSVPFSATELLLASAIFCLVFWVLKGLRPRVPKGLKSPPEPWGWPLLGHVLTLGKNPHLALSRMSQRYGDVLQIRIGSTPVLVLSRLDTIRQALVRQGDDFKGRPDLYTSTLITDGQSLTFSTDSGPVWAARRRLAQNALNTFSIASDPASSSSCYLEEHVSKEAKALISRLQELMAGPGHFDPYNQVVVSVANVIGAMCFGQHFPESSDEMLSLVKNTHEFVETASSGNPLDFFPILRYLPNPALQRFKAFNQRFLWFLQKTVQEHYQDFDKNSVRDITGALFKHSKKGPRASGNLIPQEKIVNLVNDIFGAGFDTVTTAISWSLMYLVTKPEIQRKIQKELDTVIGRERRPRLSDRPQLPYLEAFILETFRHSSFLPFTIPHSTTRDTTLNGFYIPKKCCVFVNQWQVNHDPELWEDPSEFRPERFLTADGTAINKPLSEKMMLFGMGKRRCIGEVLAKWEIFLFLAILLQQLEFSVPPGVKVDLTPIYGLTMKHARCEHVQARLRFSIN

Cytochrome P450 2C9 = Cytochrome P450 2C9 (Homo sapiens, UniProt P11712); experiment: Inhibition of CYP2C9 (unknown origin); format: ADME
[4] = biological target: cGMP-specific 3',5'-cyclic phosphodiesterase (Homo sapiens, UniProt O76074); experiment: Inhibition of PDE5A1 (535 to 860 residues) (unknown origin) extracted from Escherichia coli BL21 using 3H-cGMP as substrate incubated for 15 mins by liquid scintillation counter analysis
[5] = biological target: cGMP-inhibited 3',5'-cyclic phosphodiesterase 3A (Homo sapiens, UniProt Q14432); experiment: Inhibition of PDE3A (679 to 1087 residues) (unknown origin) using 3H-cAMP as substrate incubated for 15 mins by liquid scintillation counter analysis
[6] = biological target: 3',5'-cyclic-AMP phosphodiesterase 4D (Homo sapiens, UniProt Q08499); experiment: Inhibition of PDE4D (86 to 413 residues) (unknown origin) using 3H-cAMP as substrate incubated for 15 mins by liquid scintillation counter analysis
Sequence of 3',5'-cyclic-AMP phosphodiesterase 4D (Q08499 whole entry, the tested form may be a part): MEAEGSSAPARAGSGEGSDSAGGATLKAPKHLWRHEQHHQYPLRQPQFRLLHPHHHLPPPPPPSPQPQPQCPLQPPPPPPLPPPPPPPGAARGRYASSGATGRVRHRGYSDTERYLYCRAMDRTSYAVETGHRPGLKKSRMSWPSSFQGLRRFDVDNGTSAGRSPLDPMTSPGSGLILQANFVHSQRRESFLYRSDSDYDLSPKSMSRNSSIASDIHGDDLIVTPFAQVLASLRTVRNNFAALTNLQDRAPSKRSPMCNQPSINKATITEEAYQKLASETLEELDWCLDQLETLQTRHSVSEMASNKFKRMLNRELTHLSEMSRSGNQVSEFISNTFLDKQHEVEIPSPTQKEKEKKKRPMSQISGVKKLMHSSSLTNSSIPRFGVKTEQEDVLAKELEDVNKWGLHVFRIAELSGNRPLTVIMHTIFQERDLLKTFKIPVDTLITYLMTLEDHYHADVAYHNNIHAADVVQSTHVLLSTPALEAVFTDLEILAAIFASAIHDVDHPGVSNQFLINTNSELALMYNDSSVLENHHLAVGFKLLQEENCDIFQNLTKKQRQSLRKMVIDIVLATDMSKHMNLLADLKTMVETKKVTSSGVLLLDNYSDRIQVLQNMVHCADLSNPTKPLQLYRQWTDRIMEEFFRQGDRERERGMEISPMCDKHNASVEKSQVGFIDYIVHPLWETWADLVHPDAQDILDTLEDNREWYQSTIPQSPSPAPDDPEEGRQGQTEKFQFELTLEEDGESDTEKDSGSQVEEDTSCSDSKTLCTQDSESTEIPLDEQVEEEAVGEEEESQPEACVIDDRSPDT

[7] = biological target: High affinity cGMP-specific 3',5'-cyclic phosphodiesterase 9A (Homo sapiens, UniProt O76083); experiment: Inhibition of recombinant PDE9A2 (181 to 506 residues) (unknown origin) extracted from Escherichia coli BL21 using 3H-cGMP as substrate incubated for 15 mins by liquid scintillation counter analysis
[8] = biological target: cGMP-dependent 3',5'-cyclic phosphodiesterase (Homo sapiens, UniProt O00408); experiment: Inhibition of PDE2A (580 to 919 residues) (unknown origin) using 3H-cGMP as substrate incubated for 15 mins by liquid scintillation counter analysis
Sequence of cGMP-dependent 3',5'-cyclic phosphodiesterase (O00408 whole entry, the tested form may be a part): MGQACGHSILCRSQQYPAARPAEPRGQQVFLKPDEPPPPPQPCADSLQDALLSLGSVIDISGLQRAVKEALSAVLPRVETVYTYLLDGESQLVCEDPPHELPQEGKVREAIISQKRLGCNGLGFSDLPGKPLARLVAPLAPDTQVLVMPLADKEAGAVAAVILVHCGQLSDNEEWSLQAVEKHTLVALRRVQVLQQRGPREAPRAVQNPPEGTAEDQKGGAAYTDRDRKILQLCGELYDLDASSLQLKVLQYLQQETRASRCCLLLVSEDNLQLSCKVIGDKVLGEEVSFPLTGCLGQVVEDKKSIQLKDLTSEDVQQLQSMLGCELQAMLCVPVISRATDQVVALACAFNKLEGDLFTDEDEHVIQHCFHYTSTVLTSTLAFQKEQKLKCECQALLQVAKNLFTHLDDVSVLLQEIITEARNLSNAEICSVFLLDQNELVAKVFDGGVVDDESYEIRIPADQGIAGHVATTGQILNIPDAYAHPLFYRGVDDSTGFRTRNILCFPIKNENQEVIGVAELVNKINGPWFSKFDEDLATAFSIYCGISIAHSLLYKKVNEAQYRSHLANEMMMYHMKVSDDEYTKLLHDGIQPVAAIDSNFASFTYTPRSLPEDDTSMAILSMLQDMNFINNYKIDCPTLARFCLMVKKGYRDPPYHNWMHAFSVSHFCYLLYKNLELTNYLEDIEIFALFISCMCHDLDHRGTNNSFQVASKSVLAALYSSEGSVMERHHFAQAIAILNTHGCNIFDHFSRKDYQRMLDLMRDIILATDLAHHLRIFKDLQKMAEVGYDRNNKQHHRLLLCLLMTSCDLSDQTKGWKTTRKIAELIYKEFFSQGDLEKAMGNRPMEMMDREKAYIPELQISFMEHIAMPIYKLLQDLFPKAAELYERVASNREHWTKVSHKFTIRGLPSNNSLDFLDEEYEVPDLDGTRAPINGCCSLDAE

[9] = biological target: Dual 3',5'-cyclic-AMP and -GMP phosphodiesterase 11A (Homo sapiens, UniProt Q9HCR9); experiment: Inhibition of PDE11A4 (588 to 911 residues) (unknown origin) using 3H-cGMP/3H-cAMP as substrate incubated for 15 mins by liquid scintillation counter analysis
Sequence of Dual 3',5'-cyclic-AMP and -GMP phosphodiesterase 11A (Q9HCR9 whole entry, the tested form may be a part): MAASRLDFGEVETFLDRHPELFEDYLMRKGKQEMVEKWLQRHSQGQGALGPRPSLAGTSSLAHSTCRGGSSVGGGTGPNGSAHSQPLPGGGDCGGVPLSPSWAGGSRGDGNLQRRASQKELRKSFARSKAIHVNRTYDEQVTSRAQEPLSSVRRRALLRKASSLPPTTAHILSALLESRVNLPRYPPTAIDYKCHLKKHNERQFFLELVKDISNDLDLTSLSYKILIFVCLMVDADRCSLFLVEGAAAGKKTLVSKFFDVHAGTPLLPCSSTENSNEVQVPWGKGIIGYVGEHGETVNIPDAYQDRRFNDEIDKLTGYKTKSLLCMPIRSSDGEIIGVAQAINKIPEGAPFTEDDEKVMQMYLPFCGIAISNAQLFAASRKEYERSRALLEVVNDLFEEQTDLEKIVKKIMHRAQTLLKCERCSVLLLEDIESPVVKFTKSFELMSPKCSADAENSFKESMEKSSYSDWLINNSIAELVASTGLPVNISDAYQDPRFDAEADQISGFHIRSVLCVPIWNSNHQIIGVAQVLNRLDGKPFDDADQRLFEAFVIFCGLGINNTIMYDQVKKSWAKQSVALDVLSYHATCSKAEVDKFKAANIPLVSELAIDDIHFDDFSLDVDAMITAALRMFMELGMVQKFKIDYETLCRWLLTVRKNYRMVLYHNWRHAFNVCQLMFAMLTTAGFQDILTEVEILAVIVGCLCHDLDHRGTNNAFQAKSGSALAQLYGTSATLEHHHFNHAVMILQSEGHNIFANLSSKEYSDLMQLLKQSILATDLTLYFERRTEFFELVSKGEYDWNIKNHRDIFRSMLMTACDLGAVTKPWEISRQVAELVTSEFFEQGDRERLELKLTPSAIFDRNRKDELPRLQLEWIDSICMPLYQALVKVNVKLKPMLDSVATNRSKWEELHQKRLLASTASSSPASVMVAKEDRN

in vitro [10] = details: PAMPA
in vitro [11] = details: rat, liver microsomes
[12] = biological target: cAMP and cAMP-inhibited cGMP 3',5'-cyclic phosphodiesterase 10A (Homo sapiens, UniProt Q9Y233)

IC50 [1] [µM]	IC50 (Cytochrome P450 2C19) [µM]	IC50 [2] [µM]	IC50 [3] [µM]	IC50 (Cytochrome P450 3A4) [µM]	IC50 (Cytochrome P450 2D6) [µM]	IC50 (Cytochrome P450 1A2) [µM]	IC50 (Cytochrome P450 2C9) [µM]	IC50 [4] [µM]	IC50 [5] [µM]	IC50 [6] [µM]	IC50 [7] [µM]	IC50 [8] [µM]	IC50 [9] [µM]	Papp (in vitro [10]) [×10⁻⁶ cm/s]	half-life (in vitro [11]) [min]	IC50 [12] [µM]	Compound
> 10	> 30	> 10	> 10	> 30	9.7	> 30	> 30	> 10	> 10	1.28	> 10	> 10	> 10	–	–	–	CCOC(=O)c1c(C2CN(c3cc(C(=O)NCCN(CC)CC)c4ccccc4n3)C2)nc2ccccn12
–	–	–	–	0.21	–	–	–	–	–	–	–	–	–	1.47	25	–	Cc1ccc2c(c1)nc(/C=C/c1cccc3cccnc13)n2-c1cccc(OCCCN2CCN(C)CC2)c1
–	–	–	–	–	–	–	–	–	–	–	–	–	–	–	0.72	0.0312	Cc1ccc2c(c1)nc(C1CN(c3nc(Cl)nc4ccccc34)C1)n2-c1ccccc1
